The text below walks through data of ChEMBL document CHEMBL1201862, “PubChem BioAssay data set” (2004).

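Following 48 hours of exposure in 96-well plates, responses at five concentrations were used to interpolate endpoints linearly. GI50 is the concentration that inhibits growth by half.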 Calls of active or inactive are those of the source. Cut-off read from the data, not from the text of the source: active = GI50 up to about 1.1 µM and inactive = higher.

Holding throughout (test): growth of human tumour cells (NCI), 48 h
Assay [1] deals with SNB-78.
Assay [2] has as its system XF498.
Assay [3] deals with LXFL 529.
Assay [4] relates to RXF 631.
The test system of assay [5] is DMS-114.
Assay [6] concerns DMS-273.
Assay [7] has as its system M19-MEL.
Assay [8] deals with KM-20L2.
Assay [9] concerns BT-549.

As to `CN1NC(c2ccccc2)=C(C#N)C(=O)CC1c1ccccc1Cl` (stereo not drawn), the GI50 in [1], in [2], in assay [3], in assay [4], in assay [5] and in [6] was > 100 µM (inactive) throughout.

For `Cc1ccc(S(=O)(=O)N/N=C/C(C)C)cc1`, the GI50 in [1], in assay [3], in [4], in assay [5], in [7] and in assay [8] was > 100 µM (inactive) each time. The GI50 in [6] is > 100 µM (inactive).

As for `C=CSCCC(N)C(=O)O` (stereo not drawn), the GI50 in assay [1], in assay [2], in assay [3], in assay [4], in assay [5] and in assay [7] was > 100 µM (inactive) in each case. Moreover, the GI50 in assay [8] and in assay [6] was > 100 µM (inactive) throughout.

Consider `C=CC(=O)c1ccc2c(c1)OCCOCCOCCOCCOCCO2`, for which the GI50 in [1] is 17.7 µM (inactive); in assay [9], 19.9 µM (inactive); in assay [2], 15.3 µM (inactive); in assay [3], 16.9 µM (inactive); in [5], 19.3 µM (inactive); in assay [7], 17.8 µM (inactive). The GI50 in assay [8] is 30.2 µM (inactive); in [6], 15.7 µM (inactive).

For `CS(=O)(=O)OCCCOS(C)(=O)=O`, the GI50 in assay [1], in assay [2], in assay [3], in assay [5], in assay [7] and in [8] was > 100 µM (inactive) each time. In addition, the GI50 in [6] was > 100 µM (inactive).

For the molecule `CCOC(=O)Cn1c(=O)[nH]c(=O)c2[nH]cnc21`, the GI50 in assay [1], in [3], in assay [4], in assay [5], in assay [7] and in assay [8] was > 100 µM (inactive) in each case. For the same molecule, in assay [6], the GI50 is > 100 µM (inactive).

`Fc1cccc(C2SCc3nc4ccccc4n32)c1` (stereo not drawn): the GI50 in assay [1] was 30.6 µM (inactive); in assay [3], 25.2 µM (inactive); in [4] it was 32.7 µM (inactive); in [5], 26.3 µM (inactive); in assay [7], 51.4 µM (inactive); in assay [6], 26.6 µM (inactive).

In the case of `Cc1ccc2sc3cc(=O)cc(C)c-3nc2c1`, the GI50 in assay [1] is > 100 µM (inactive); in [3], 28 µM (inactive); in assay [4], 54.1 µM (inactive); in [5], 19.6 µM (inactive); in assay [7] it was 16 µM (inactive); in assay [8] it was > 100 µM (inactive). Further, the GI50 in assay [6] is 43.3 µM (inactive).

As for `Cc1cccc(-c2nc3c(C(=O)NCCN(C)C)cccc3[nH]2)c1`, the GI50 is 3.49 µM (inactive) in [1]; 0.394 µM (active) in assay [4]; 1.24 µM (inactive) in [5]; 1.67 µM (inactive) in assay [7]; 0.411 µM (active) in assay [6].

Consider `c1ccc(P(=C2c3ccccc3-c3ccccc32)(c2ccccc2)c2ccccc2)cc1`, for which the GI50 in assay [3] was 3.85 µM (inactive); in [4], 5.64 µM (inactive); in [5], 2.79 µM (inactive); in assay [7], 4.94 µM (inactive); in [8], 2.56 µM (inactive); in assay [6] it was 5.04 µM (inactive).

Take `Nc1c(-c2cn(Cc3ccccc3)c3ccccc23)[n+]([O-])c2ccccc2[n+]1[O-]`: the GI50 in assay [1] is 53.8 µM (inactive); in assay [2], 12.6 µM (inactive); in assay [3], 23.9 µM (inactive); in assay [5] it was 16.7 µM (inactive); in assay [7] it was 38.9 µM (inactive); in assay [8], 34.6 µM (inactive). The GI50 in assay [6] was 23.8 µM (inactive).

As for `COc1cc2c(oc(=O)c3c4oc([Si](C)(C)C)cc4cc(OC)c23)c2cccc(OCc3ccccc3)c12`, the GI50 is 17 µM (inactive) in [1]; 8.32 µM (inactive) in assay [2]; 27.2 µM (inactive) in assay [3]; 50.6 µM (inactive) in assay [5]; 48.2 µM (inactive) in [7]; > 66.1 µM (inactive) in assay [8]. Further, in assay [6], the GI50 was 25.3 µM (inactive).

`Cc1c(NC(=O)C(C)(C)Br)c(=O)oc2c(C)c3occc(=O)c3cc12`: the GI50 in assay [2] was 27.3 µM (inactive); in [3], 42.9 µM (inactive); in [4], 48.1 µM (inactive); in assay [5] it was 44.1 µM (inactive); in assay [8], 41.4 µM (inactive); in [6] it was 77.3 µM (inactive).

Regarding `CCN(CC)Cc1c(/C=C\c2cc(OC)c(OC)c(OC)c2)ccc(OC)c1O`, the GI50 in assay [1] was 4.17 µM (inactive); in assay [9], 6.01 µM (inactive); in assay [2] it was 4.08 µM (inactive); in assay [3], 5.53 µM (inactive); in [5], 2.23 µM (inactive); in assay [7], 3.22 µM (inactive). Moreover, the GI50 was 3.52 µM (inactive) in assay [8] and 2.2 µM (inactive) in [6].

In the case of `COc1ccc2c(c1)OC[C@@H]1c3cc4c(cc3O[C@H]21)OCO4`, the GI50 in [1], in [2], in assay [3], in [5], in assay [8] and in assay [6] was > 100 µM (inactive) throughout.

In the case of `Cc1[nH]c2ccccc2c1/C=C/c1c(C)[nH]c2ccccc12`, the GI50 in assay [1], in [2], in [3], in assay [5], in [7] and in [8] was > 100 µM (inactive) in each case. Also, the GI50 in assay [6] was > 100 µM (inactive).

With `COc1ccc(-c2cc(C(=O)Nc3cc(C(F)(F)F)cc(C(F)(F)F)c3)c3ccccc3n2)cc1`, the GI50 in assay [1] was 19.5 µM (inactive); in assay [2], 7.31 µM (inactive); in assay [3] it was 8.83 µM (inactive); in assay [5], 6.56 µM (inactive); in assay [7], 17.2 µM (inactive); in assay [8], 7.08 µM (inactive). In assay [6], the GI50 was 8.36 µM (inactive).

Take `COc1cc2c(c(OC)c1OC)CCNC2C1=C(O)COC1=O` (stereo not drawn): the GI50 in assay [1], in [3], in [4], in assay [5], in assay [7] and in [8] was > 100 µM (inactive) in each case. Also, in assay [6], the GI50 was > 100 µM (inactive).

On to `O=[N+]([O-])c1ccc(-c2noc(-c3ccc(Cl)cc3)c2C2=NCCN2)cc1`, for which the GI50 in assay [1], in assay [2], in [3], in assay [7] and in [8] was > 100 µM (inactive) each time.

On to `CN[C@@H]1C[C@H]2O[C@@](C)([C@@H]1OC)n1c3ccccc3c3c4c(c5c6ccccc6n2c5c31)C(=O)N[C@@H]4O`, for which the GI50 is 0.0344 µM (active) in assay [1]; 0.108 µM (active) in [9]; 0.0356 µM (active) in assay [2]; 0.119 µM (active) in assay [3]; 0.104 µM (active) in [5]; 0.135 µM (active) in assay [7]. Moreover, the GI50 is 0.104 µM (active) in [8] and 0.0352 µM (active) in assay [6].

In the case of `N#C/C(=C1\OC(=O)C(c2ccc(Br)cc2)=C1O)c1ccc(Br)cc1`, the GI50 in assay [1] was 12.3 µM (inactive); in [2], 12.9 µM (inactive); in [3], 10.2 µM (inactive); in [4], 15.4 µM (inactive); in [5] it was 12.8 µM (inactive); in assay [7], 14.6 µM (inactive). Besides, the GI50 in assay [8] was 17.5 µM (inactive); in assay [6], 21.3 µM (inactive).

With `O=C(Nc1nnc(S)[nH]1)C(=O)C(C(=O)c1ccc2ccccc2c1)C1OC(=O)c2ccccc21` (stereo not drawn), the GI50 was 29.8 µM (inactive) in [1]; 2.09 µM (inactive) in [2]; 12.1 µM (inactive) in [3]; 21.8 µM (inactive) in assay [4]; 12.2 µM (inactive) in assay [5]; 13.8 µM (inactive) in assay [7]. Besides, the GI50 in assay [8] is 35.3 µM (inactive); in assay [6], 25.5 µM (inactive).

In the case of `Cc1cc(Cl)ccc1NC(=O)C(=O)Cc1nc2ccccc2o1`, the GI50 in [1], in [2], in [3], in assay [4], in assay [5] and in assay [7] was > 100 µM (inactive) in each case. For the same molecule, the GI50 in [8] and in assay [6] was > 100 µM (inactive) each time.

In the case of `CCCCC(=O)OC[n+]1ccc2c(C)c3[nH]c4ccc(OC)cc4c3c(C)c2c1`, the GI50 was 1.18 µM (inactive) in assay [1]; 0.619 µM (active) in assay [3]; 0.345 µM (active) in assay [4]; 0.705 µM (active) in [5]; 0.684 µM (active) in [7]; 0.377 µM (active) in [8]. The GI50 in [6] was 0.103 µM (active).

On to `Nc1nc(S)nc(C(=O)Nc2nccs2)c1-c1ccccc1`, for which the GI50 in assay [1], in [2], in assay [3], in [5], in [7] and in assay [8] was > 100 µM (inactive) in each case. In addition, the GI50 in assay [6] was > 100 µM (inactive).
